Earlier results on one compound are cited in patent publication US20080160064A1, “DEVICES AND METHODS FOR […]” (priority 2006, published 2008).

The target of the data set is hemoglobin (Homo sapiens, UniProt P68871+P69905). As to conditions: higher affinity than oxygen.
Sequence of hemoglobin (P69905 2-142 limits assumed): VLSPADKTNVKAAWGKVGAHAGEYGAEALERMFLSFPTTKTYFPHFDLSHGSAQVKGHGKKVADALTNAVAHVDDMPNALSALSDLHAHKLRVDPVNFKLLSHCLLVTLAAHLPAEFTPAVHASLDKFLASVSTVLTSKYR
Sequence of hemoglobin (P68871 2-147 limits assumed): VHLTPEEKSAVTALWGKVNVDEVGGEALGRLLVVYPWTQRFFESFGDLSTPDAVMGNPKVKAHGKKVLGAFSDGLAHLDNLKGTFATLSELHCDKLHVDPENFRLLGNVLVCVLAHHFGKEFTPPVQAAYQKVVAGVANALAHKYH

Regarding `[C-]#[O+]` [CO, Carbon monoxide], the “affinity for hemoglobin relative to oxygen” value is on record as roughly 200 ×.
